Source: US9260439B2, “Dihydropyrrolopyrimidine derivatives” (PFIZER INC., priority 2014, dated 2016)
Counter-ions that a name gives are not always drawn.

Molecular target: truncated PI3Kα (p110α/iSH2 p85α) (Homo sapiens (Human), UniProt P42336)
Assay: PI3KA_Act fluorescence polarization kinase assay (Ki)
Format: biochemical
Conditions: 1 mM ATP
Excerpt: 2) p110α-iSH2 p85α Complex (Full Length p110α and p85α iSH2)(“PI3KA_Act”)
Genes encoding for full length p110α and p85α nSH-iSH2=niSH2 (p85a aminoacids 322-600) subunits of PI3Kα complex were subcloned from existing constructs into pFASTBAC Dual vector (Life Technologies, Carlsbad, Calif.) using standard cloning procedures. Gene encoding p110α subunit was subcloned into polyhedrine promoter while gene encoding p85α niSH2 domains was subcloned into p10 promoter. Additionally, Human Rhinovirus 3C Protease (“HRV 3C”) site was introduced between nSH2 and iSH2, replacing aminoacids 431-438 of p85α with […] HRV 3C recognition sequence, using standard QuickChange mutagenesis protocol (Agilent Technologies, CA). Recombinant baculovirus was generated using Bac-to-Bac protocol (Life Technologies, Carlsbad, Calif.). Large scale expression was conducted in Sf21 (Life Technologies, Carlsbad, Calif.) cells at a multiplicity of infection (“MOI”)=1 for 48 hours. Cells were lyzed in 50 mM Tris pH 8.0, 250 mM NaCl, 5% glycerol, 0.25 mM TCEP, and 20 mM imidazole. The p110α-niSH2 p85α complex was purified from clarified supernatant using Immobilized Metalo Affinity Chromatography (“IMAC”). The protein was eluted from the column using 50 mM Tris pH 8.0, 200 mM NaCl, 0.25 mM TCEP, and 200 mM imidazole. Following elution p110α-niSH2 p85α complex was dialyzed against 4 liters of 50 mM Tris pH 8.0, 200 mM NaCl, 0.25 mM TCEP, and 40 mM imidazole in the presence of PreScission Protease (1:70 molar ratio of Protease to Protein) and TEV protease (1:40 molar ratio protease to protein) for 16 hours at 4° C. The protein was further purified using reverse IMAC to remove cleaved histidine tag and contaminants captured during initial IMAC purification. The mixture of p110α-iSH2 p85α complex and cleaved nSH2 was recovered in reverse IMAC 40 mM imidazole flow through and 60 mM imidazole wash fractions. Those fractions were pulled together and loaded on Superdex 200 26/60 SEC column equilibrated in 25 mM Tris, pH 8.0, 100 mM NaCl, 2% glycerol, and 2 mM TCEP. Following SEC, chromatography peak fractions containing p110α-iSH2 p85α complex were pulled and concentrated to 4.3 mg/mL. Purity and integrity of the complex was confirmed using LCMS, analytical SEC and SDS-PAGE (sodium dodecyl sulfate polyacrylamide gel electrophoresis) analysis.
The biochemical assays of kinase activity of full-length PI3Kα (full-length p110α/p85a) or truncated PI3Kα (p110α/iSH2 p85a) were conducted using a fluorescence polarization format similar to the procedure of Yuan J., et al., (2011) “PF-04691502, a Potent and Selective Oral Inhibitor of PI3K and mTOR Kinases with Antitumor Activity”, Mol Cancer Ther. 10, 2189-2199. The enzymatic reactions were conducted in 50 μL volumes in 96-well plates. The reactions contained human recombinant PI3Kα (2 nM full-length p110α/p85α or 0.5 nM p110α/iSH2 p85) and 30 μM phosphatidylinositol 4,5-bisphosphate (“PIP2”) (Cayman Chemical Company, Ann Arbor, Mich.) and were sonicated for 1 minute prior to adding PI3Kα enzyme (PI3KA_Act or PI3KA_FL), DMSO or test compound (12-point 3-fold serial dilution, 3 μM top dose, 2° A) DMSO final concentration), 5 mM MgCl2, 50 mM HEPES pH 7.4, 150 mM NaCl, 1 mM DTT ((2S,3S)-1,4-bis(sulfanyl)butane-2,3-diol), and 0.05% 3-[(3-cholamidopropyl)dimethylammonio]-1-propanesulfonate (“CHAPS”). […] The reactions were incubated for 30 min at room temperature, stopped with EDTA pH 8 (10 mM final concentration). In a detection plate, 15 μL of detector/probe mixture, containing 480 nM GST-Grp1 PH domain protein (University of Dundee, Dundee, UK) and 12 nM carboxytetramethylrhodamine (“TAMRA”)-tagged fluorescent phosphatidylinositol (3,4,5)-triphosphate (“PIP3”) (Echelon Biosciences, Inc., Salt Lake City, Utah) in assay buffer, was mixed with 15 μL of kinase reaction mixture. The plate was shaken for 30 minutes and fluorescence polarization values were measured on an LJL Analyst HT plate reader (Molecular Devices, Sunnyvale, Calif.). […]

Chain of truncated PI3Kα (p110α/iSH2 p85α) (P42336 whole entry, the tested form may be a part): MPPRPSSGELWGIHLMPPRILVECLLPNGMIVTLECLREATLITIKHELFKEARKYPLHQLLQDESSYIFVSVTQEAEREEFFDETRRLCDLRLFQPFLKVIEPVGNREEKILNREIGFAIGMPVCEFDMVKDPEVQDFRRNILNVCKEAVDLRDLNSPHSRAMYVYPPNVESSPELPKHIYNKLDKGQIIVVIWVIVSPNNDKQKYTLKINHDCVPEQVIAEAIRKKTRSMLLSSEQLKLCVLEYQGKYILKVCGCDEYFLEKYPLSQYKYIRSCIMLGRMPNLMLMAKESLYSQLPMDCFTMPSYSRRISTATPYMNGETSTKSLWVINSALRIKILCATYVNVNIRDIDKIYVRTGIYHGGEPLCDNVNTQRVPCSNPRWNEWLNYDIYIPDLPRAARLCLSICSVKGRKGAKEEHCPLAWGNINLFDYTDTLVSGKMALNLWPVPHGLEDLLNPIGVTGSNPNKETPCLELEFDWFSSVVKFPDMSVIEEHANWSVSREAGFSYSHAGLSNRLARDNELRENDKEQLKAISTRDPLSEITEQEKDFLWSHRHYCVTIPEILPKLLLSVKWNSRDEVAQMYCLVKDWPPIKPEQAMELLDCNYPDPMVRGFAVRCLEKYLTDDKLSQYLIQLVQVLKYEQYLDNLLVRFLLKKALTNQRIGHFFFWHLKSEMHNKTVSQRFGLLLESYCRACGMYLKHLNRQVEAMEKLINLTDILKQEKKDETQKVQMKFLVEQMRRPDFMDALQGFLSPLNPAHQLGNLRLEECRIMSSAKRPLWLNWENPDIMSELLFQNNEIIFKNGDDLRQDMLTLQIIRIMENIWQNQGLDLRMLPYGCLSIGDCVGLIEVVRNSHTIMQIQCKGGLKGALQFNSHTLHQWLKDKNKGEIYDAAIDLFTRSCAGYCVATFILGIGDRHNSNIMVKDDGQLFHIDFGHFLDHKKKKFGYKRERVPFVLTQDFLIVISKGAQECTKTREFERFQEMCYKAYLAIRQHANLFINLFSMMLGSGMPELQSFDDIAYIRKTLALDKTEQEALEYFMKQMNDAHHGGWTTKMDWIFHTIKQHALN

Row | Structure (SMILES) | PI3KA_Act Ki [nM] | also measured
1 | CNS(=O)(=O)N1CCC(C)(N2CCc3c(-c4cnc(N)nc4)nc(N4CCOCC4)nc32)C1 (racemic) [Example 162] | <0.018 | 
2 | CC(C)(C)OC(=O)N1CCCC(C)(N2CCc3c(-c4cnc(N)nc4)nc(N4CCOCC4)nc32)C1 (racemic) [Example 434, tert-butyl 3-[4-(2-aminopyrimidin-5-yl)-2-(morpholin-4-yl)-5,6-dihydro-7H-pyrrolo[2,3-d]pyrimidin-7-yl]-3-methylpiperidine-1-carboxylate] | 0.220 | 
3 | CS(=O)(=O)N1CC2CC2(N2CCc3c(-c4cnc(N)nc4)nc(N4CCOCC4)nc32)C1 (racemic) [Example 435, 5-{7-[3-(methylsulfonyl)-3-azabicyclo[3.1.0]hex-1-yl]-2-(morpholin-4-yl)-6,7-dihydro-5H-pyrrolo[2,3-d]pyrimidin-4-yl}pyrimidin-2-amine] | 0.132 | 
4 | C[C@]1(N2CCc3c(-c4cnc(N)nc4)nc(N4CCOCC4)nc32)CCN(C2CCNC2=O)C1 (single isomer, unassigned) [Example 7] | 0.091 | 
5 | CCC(C)(O)C(=O)N1CC[C@](C)(N2CCc3c(-c4cnc(N)nc4)nc(N4CCOCC4)nc32)C1 (single isomer, unassigned) [Example 273] | 0.087 | 
6 | CCC(C)(O)C(=O)N1CC[C@](C)(N2CCc3c(-c4cnc(N)nc4)nc(N4CCOCC4)nc32)C1 (single isomer, unassigned) [Example 274] | 0.145 | 
7 | CC(C(N)=O)C(=O)N1CC[C@](C)(N2CCc3c(-c4cnc(N)nc4)nc(N4CCOCC4)nc32)C1 (single isomer, unassigned) [Example 316] | 0.019 | 
8 | C[C@@]1(N2CCc3c(-c4cnc(N)nc4)nc(N4CCOCC4)nc32)CCN(C(=O)C(O)C2CC2)C1 (single isomer, unassigned) [Example 326] | 0.048 | 
9 | C[C@@]1(N2CCc3c(-c4cnc(N)nc4)nc(N4CCOCC4)nc32)CCN(C(=O)C(O)C2CC2)C1 (single isomer, unassigned) [Example 327] | 0.028 | 
10 | CC1(C(=O)N2CC[C@](C)(N3CCc4c(-c5cnc(N)nc5)nc(N5CCOCC5)nc43)C2)CCCO1 (single isomer, unassigned) [Example 375, hydrochloride] |  | PI3KA_Act Ki (hydrochloride): 0.043 nM
11 | CC1(C(=O)N2CC[C@](C)(N3CCc4c(-c5cnc(N)nc5)nc(N5CCOCC5)nc43)C2)CCCO1 (single isomer, unassigned) [Example 376] | 0.090 | 
12 | CN1CCC(N2CC[C@](C)(N3CCc4c(-c5cnc(N)nc5)nc(N5CCOCC5)nc43)C2)C1=O (single isomer, unassigned) [Example 426] | 0.051 | 
13 | CN1CCC(N2CC[C@](C)(N3CCc4c(-c5cnc(N)nc5)nc(N5CCOCC5)nc43)C2)C1=O (single isomer, unassigned) [Example 427] | 0.073 | 
14 | C[C@]1(N2CCc3c(-c4cnc(N)nc4)nc(N4CCOCC4)nc32)CCN(C2CCCNC2=O)C1 (single isomer, unassigned) [Example 428] | 0.067 | 
15 | C[C@]1(N2CCc3c(-c4cnc(N)nc4)nc(N4CCOCC4)nc32)CCN(C2CCCNC2=O)C1 (single isomer, unassigned) [Example 429] | 0.160 | 
16 | CC1(N2CCc3c(-c4cnc(N)nc4)nc(N4CCOCC4)nc32)CCCNC1 (single isomer, unassigned) [Example 431, 5-[7-(3-methylpiperidin-3-yl)-2-(morpholin-4-yl)-6,7-dihydro-5H-pyrrolo[2,3-d]pyrimidin-4-yl]pyrimidin-2-amine hydrochloride] |  | PI3KA_Act Ki (hydrochloride): 14.544 nM
17 | CC1(N2CCc3c(-c4cnc(N)nc4)nc(N4CCOCC4)nc32)CCCNC1 (single isomer, unassigned) [Example 432, 5-[7-(3-methylpiperidin-3-yl)-2-(morpholin-4-yl)-6,7-dihydro-5H-pyrrolo[2,3-d]pyrimidin-4-yl]pyrimidin-2-amine hydrochloride] |  | PI3KA_Act Ki (hydrochloride): 11.739 nM
18 | CS(=O)(=O)N1C[C@H]2C[C@@H]1[C@@H]2N1CCc2c(-c3cnc(N)nc3)nc(N3CCOCC3)nc21 (single isomer, unassigned) [Example 439] |  | Ki: 1.51 nM
19 | CS(=O)(=O)N1C[C@H]2C[C@@H]1[C@@H]2N1CCc2c(-c3cnc(N)nc3)nc(N3CCOCC3)nc21 (single isomer, unassigned) [Example 440] |  | Ki: 0.178 nM
20 | C[C@H]1COCCN1c1nc(-c2cnc(N)nc2)c2c(n1)N([C@@]1(C)CCN(C(=O)C3(N)CCOC3)C1)CC2 (single isomer, unassigned) [Example 502, hydrochloride] |  | PI3KA_Act Ki (hydrochloride): 0.064 nM
21 | C[C@H]1COCCN1c1nc(-c2cnc(N)nc2)c2c(n1)N([C@@]1(C)CCN(C(=O)C3(N)CCOC3)C1)CC2 (single isomer, unassigned) [Example 503, hydrochloride] |  | PI3KA_Act Ki (hydrochloride): 0.091 nM
22 | C[C@H]1COCCN1c1nc(-c2cnc(N)nc2)c2c(n1)N([C@@]1(C)CCN(C3CCNC3=O)C1)CC2 (single isomer, unassigned) [Example 514] | 0.068 | 
23 | C[C@H]1COCCN1c1nc(-c2cnc(N)nc2)c2c(n1)N([C@@]1(C)CCN(C3CCNC3=O)C1)CC2 (single isomer, unassigned) [Example 515] | <0.081 | 
24 | C[C@H]1COCCN1c1nc(-c2cnc(N)nc2)c2c(n1)N(C1(C)CCCNC1)CC2 (single isomer, unassigned) [Example 517, hydrochloride] |  | PI3KA_Act Ki (hydrochloride): 9.319 nM
25 | C[C@H]1COCCN1c1nc(-c2cnc(N)nc2)c2c(n1)N(C1(C)CCCNC1)CC2 (single isomer, unassigned) [Example 518, hydrochloride] |  | PI3KA_Act Ki (hydrochloride): 11.285 nM
26 | CNC(=O)N1CC[C@@](C)(N2CCc3c(-c4cnc(N)nc4)nc(N4CCOCC4)nc32)C1 [Example 2, (3R)-3-[4-(2-aminopyrimidin-5-yl)-2-(morpholin-4-yl)-5,6-dihydro-7H-pyrrolo[2,3-d]pyrimidin-7-yl]-N,3-dimethylpyrrolidine-1-carboxamide] | 0.160 | 
27 | Nc1ncc(-c2nc(N3CCOC[C@H]3CO)nc3c2CCN3C2CC(F)(F)C2)cn1 [Example 3, {(3R)-4-[4-(2-aminopyrimidin-5-yl)-7-(3,3-difluorocyclobutyl)-6,7-dihydro-5H-pyrrolo[2,3-d]pyrimidin-2-yl]morpholin-3-yl}methanol] | 118.146 | 
28 | CC(C)(N)C(=O)N1CC[C@](C)(N2CCc3c(-c4cnc(N)nc4)nc(N4CCOCC4)nc32)C1 [Example 4, 2-amino-1-{(3S)-3-[4-(2-aminopyrimidin-5-yl)-2-(morpholin-4-yl)-5,6-dihydro-7H-pyrrolo[2,3-d]pyrimidin-7-yl]-3-methylpyrrolidin-1-yl}-2-methylpropan-1-one] | 0.023 | 
29 | C[C@H]1COCCN1c1nc(-c2cnc(N)nc2)c2c(n1)N([C@@]1(C)CCN(C(=O)C(C)(C)N)C1)CC2 [Example 5, 2-amino-1-[(3S)-3-{4-(2-aminopyrimidin-5-yl)-2-[(3S)-3-methylmorpholin-4-yl]-5,6-dihydro-7H-pyrrolo[2,3-d]pyrimidin-7-yl}-3-methylpyrrolidin-1-yl]-2-methylpropan-1-one] | 0.024 | 
